Reference: ChEMBL document CHEMBL3817770, “Design and synthesis of 5-aminolaevulinic acid/3-hydroxypyridinone conjugates for photodynamic therapy: enhancement of protoporphyrin IX production and photo-toxicity in tumor cells” (Medchemcomm, 2016)
Calls of active or inactive are those of the source. No cut-off for these calls is given here.

How the values were obtained:
[1] = test system: LNCaP; assay: Phototoxicity in human LNCAP cells assessed as cell survival at 100 uM incubated for 4 hrs followed by irradiation with blue light for 5 mins by MTT assay; type: functional
[2] = test system: KB; assay: Increase in protoporphyrin 9 levels in human KB cells at 100 uM after 24 hrs by fluorescence spectrometer plate reader method relative to ALA; type: functional
[3] = test system: A549; assay: Phototoxicity in human A549 cells assessed as cell survival at 200 uM incubated for 4 hrs followed by irradiation with blue light for 5 mins by MTT assay; type: functional
[4] = test system: A549; assay: Increase in protoporphyrin 9 levels in human A549 cells at 200 uM after 3 to 24 hrs by fluorescence spectrometer plate reader method; type: functional, cell-based
[5] = Dark toxicity in human BPH1 cells at 200 uM after 4 hrs by MTT assay; type: cell-based; details: bph-1, 4 h
[6] = Increase in protoporphyrin 9 levels in human BPH1 cells at 200 uM after 3 to 24 hrs by fluorescence spectrometer plate reader method; type: ADME, cell-based; details: bph-1, 200 µM
[7] = test system: LNCaP; assay: Phototoxicity in human LNCAP cells assessed as cell survival at 200 uM incubated for 4 hrs followed by irradiation with blue light for 5 mins by MTT assay; type: functional
[8] = test system: LNCaP; assay: Increase in protoporphyrin 9 levels in human LNCAP cells at 200 uM after 3 to 24 hrs by fluorescence spectrometer plate reader method; type: functional, cell-based
[9] = test system: LNCaP; assay: Dark toxicity in human LNCAP cells at 200 uM after 4 hrs by MTT assay; type: cell-based
[10] = test system: MCF7; assay: Phototoxicity in human MCF7 cells assessed as cell survival at 100 uM incubated for 4 hrs followed by irradiation with blue light for 5 mins by MTT assay; type: functional
[11] = test system: A549; assay: Dark toxicity in human A549 cells at 200 uM after 4 hrs by MTT assay; type: cell-based; details: a549, 4 h
[12] = test system: KB; assay: Phototoxicity in human KB cells assessed as cell survival at 200 uM incubated for 4 hrs followed by irradiation with blue light for 5 mins by MTT assay; type: functional
[13] = test system: A549; assay: Phototoxicity in human A549 cells assessed as cell survival at 100 uM incubated for 4 hrs followed by irradiation with blue light for 5 mins by MTT assay; type: functional
[14] = Phototoxicity in human BPH1 cells assessed as cell survival at 200 uM incubated for 4 hrs followed by irradiation with blue light for 5 mins by MTT assay; type: cell-based, BPH-1; details: bph-1, 4 h, 200 µM
[15] = Increase in protoporphyrin 9 levels in human BPH1 cells at 100 uM after 24 hrs by fluorescence spectrometer plate reader method relative to ALA; type: ADME, cell-based; details: bph-1, 24 h
[16] = test system: KB; assay: Increase in protoporphyrin 9 levels in human KB cells at 200 uM after 3 to 24 hrs by fluorescence spectrometer plate reader method; type: functional, cell-based
[17] = test system: A549; assay: Increase in protoporphyrin 9 levels in human A549 cells at 100 uM after 24 hrs by fluorescence spectrometer plate reader method relative to ALA; type: functional
[18] = test system: MCF7; assay: Dark toxicity in human MCF7 cells at 200 uM after 4 hrs by MTT assay; type: cell-based; details: mcf7, 4 h
[19] = test system: LNCaP; assay: Increase in protoporphyrin 9 levels in human LNCAP cells at 100 uM after 24 hrs by fluorescence spectrometer plate reader method relative to ALA; type: functional

With CCCCCCn1ccc(=O)c(O)c1C(=O)N[C@@H](CC(C)C)C(=O)NCC(=O)CCC(=O)OC the Activity [1] was “inactive”, the Activity [2] was “inactive” and the Activity [3] was “inactive”. The Activity [4] was “inactive”, the Activity [5] was “Non-toxic” and the Activity [6] was “Non-toxic”. The Activity [7] was “inactive”, the Activity [8] was “inactive” and the Activity [9] was “Non-toxic”. The Activity [10] was “inactive”, the Activity [11] was “Non-toxic” and the Activity [12] was “inactive”. For the same molecule, the Activity [13] was “inactive”, the Activity [14] was “Non-toxic” and the Activity [15] was “Non-toxic”. For the same molecule, the Activity [16] was “inactive”, the Activity [17] was “inactive” and the Activity [18] was “Non-toxic”. The Activity [19] was “inactive”.
For COC(=O)CCC(=O)CNC(=O)[C@H](CC(C)C)NC(=O)c1c(O)c(=O)ccn1C, the Activity [1] was “inactive”, the Activity [2] was “inactive” and the Activity [3] was “inactive”. The Activity [4] was “inactive”, the Activity [5] was “Non-toxic” and the Activity [6] was “Non-toxic”. The Activity [7] was “inactive”, the Activity [8] was “inactive” and the Activity [9] was “Non-toxic”. For the same molecule, the Activity [10] was “inactive”, the Activity [11] was “Non-toxic” and the Activity [12] was “inactive”. For the same molecule, the Activity [13] was “inactive”, the Activity [14] was “Non-toxic” and the Activity [15] was “Non-toxic”. The Activity [16] was “inactive”, the Activity [17] was “inactive” and the Activity [18] was “Non-toxic”. For the same molecule, the Activity [19] was “inactive”.
In the case of COCCn1ccc(=O)c(O)c1C(=O)N[C@@H](CC(C)C)C(=O)NCC(=O)CCC(=O)OC, the Activity [1] is reported as “inactive”, the Activity [2] is reported as “inactive” and the Activity [3] is reported as “inactive”. The Activity [4] was “inactive”, the Activity [5] was “Non-toxic” and the Activity [6] was “Non-toxic”. For the same molecule, the Activity [7] was “inactive”, the Activity [8] was “inactive” and the Activity [9] was “Non-toxic”. The Activity [10] was “inactive”, the Activity [11] was “Non-toxic” and the Activity [12] was “inactive”. For the same molecule, the Activity [13] was “inactive”, the Activity [14] was “Non-toxic” and the Activity [15] was “Non-toxic”. The Activity [16] was “inactive”, the Activity [17] was “inactive” and the Activity [18] was “Non-toxic”. The Activity [19] was “inactive”.
With CCCCCCn1ccc(=O)c(O)c1C(=O)N[C@@H](Cc1ccccc1)C(=O)NCC(=O)CCC(=O)OC the Activity [1] was “inactive”, the Activity [2] was “inactive” and the Activity [3] was “inactive”. The Activity [4] was “inactive”, the Activity [5] was “Non-toxic” and the Activity [6] was “Non-toxic”. For the same molecule, the Activity [7] was “inactive”, the Activity [8] was “inactive” and the Activity [9] was “Non-toxic”. For the same molecule, the Activity [10] was “inactive”, the Activity [11] was “Non-toxic” and the Activity [12] was “inactive”. The Activity [13] was “inactive”, the Activity [14] was “Non-toxic” and the Activity [15] was “Non-toxic”. The Activity [16] was “inactive”, the Activity [17] was “inactive” and the Activity [18] was “Non-toxic”. The Activity [19] was “inactive”.
With CCn1ccc(=O)c(O)c1C(=O)N[C@@H](Cc1ccccc1)C(=O)NCC(=O)CCC(=O)OC the Activity [1] was “inactive”, the Activity [2] was “inactive” and the Activity [3] was “inactive”. For the same molecule, the Activity [4] was “inactive”, the Activity [5] was “Non-toxic” and the Activity [6] was “Non-toxic”. The Activity [7] was “inactive”, the Activity [8] was “inactive” and the Activity [9] was “Non-toxic”. For the same molecule, the Activity [10] was “inactive”, the Activity [11] was “Non-toxic” and the Activity [12] was “inactive”. For the same molecule, the Activity [13] was “inactive”, the Activity [14] was “Non-toxic” and the Activity [15] was “Non-toxic”. The Activity [16] was “inactive”, the Activity [17] was “inactive” and the Activity [18] was “Non-toxic”. The Activity [19] was “inactive”.
In the case of CCCCn1ccc(=O)c(O)c1C(=O)N[C@@H](CC(C)C)C(=O)NCC(=O)CCC(=O)OC, the Activity [1] is reported as “inactive”, the Activity [2] is reported as “inactive” and the Activity [3] is reported as “inactive”. The Activity [4] was “inactive”, the Activity [5] was “Non-toxic” and the Activity [6] was “Non-toxic”. The Activity [7] was “inactive”, the Activity [8] was “inactive” and the Activity [9] was “Non-toxic”. The Activity [10] was “inactive”, the Activity [11] was “Non-toxic” and the Activity [12] was “inactive”. The Activity [13] was “inactive”, the Activity [14] was “Non-toxic” and the Activity [15] was “Non-toxic”. For the same molecule, the Activity [16] was “inactive”, the Activity [17] was “inactive” and the Activity [18] was “Non-toxic”. For the same molecule, the Activity [19] was “inactive”.
For CCn1ccc(=O)c(O)c1C(=O)N[C@@H](CC(C)C)C(=O)NCC(=O)CCC(=O)OC, the Activity [1] was “inactive”, the Activity [2] was “inactive” and the Activity [3] was “inactive”. For the same molecule, the Activity [4] was “inactive”, the Activity [5] was “Non-toxic” and the Activity [6] was “Non-toxic”. The Activity [7] was “inactive”, the Activity [8] was “inactive” and the Activity [9] was “Non-toxic”. For the same molecule, the Activity [10] was “inactive”, the Activity [11] was “Non-toxic” and the Activity [12] was “inactive”. For the same molecule, the Activity [13] was “inactive”, the Activity [14] was “Non-toxic” and the Activity [15] was “Non-toxic”. For the same molecule, the Activity [16] was “inactive”, the Activity [17] was “inactive” and the Activity [18] was “Non-toxic”. The Activity [19] was “inactive”.
In the case of CCCCn1ccc(=O)c(O)c1C(=O)N[C@@H](Cc1ccccc1)C(=O)NCC(=O)CCC(=O)OC, the Activity [1] is reported as “inactive”, the Activity [2] is reported as “inactive” and the Activity [3] is reported as “inactive”. For the same molecule, the Activity [4] was “inactive”, the Activity [5] was “Non-toxic” and the Activity [6] was “Non-toxic”. The Activity [7] was “inactive”, the Activity [8] was “inactive” and the Activity [9] was “Non-toxic”. The Activity [10] was “inactive”, the Activity [11] was “Non-toxic” and the Activity [12] was “inactive”. For the same molecule, the Activity [13] was “inactive”, the Activity [14] was “Non-toxic” and the Activity [15] was “Non-toxic”. For the same molecule, the Activity [16] was “inactive”, the Activity [17] was “inactive” and the Activity [18] was “Non-toxic”. The Activity [19] was “inactive”.
In the case of COCCn1ccc(=O)c(O)c1C(=O)N[C@@H](Cc1ccccc1)C(=O)NCC(=O)CCC(=O)OC, the Activity [1] is reported as “inactive”, the Activity [2] is reported as “inactive” and the Activity [3] is reported as “inactive”. The Activity [4] was “inactive”, the Activity [5] was “Non-toxic” and the Activity [6] was “Non-toxic”. For the same molecule, the Activity [7] was “inactive”, the Activity [8] was “inactive” and the Activity [9] was “Non-toxic”. For the same molecule, the Activity [10] was “inactive”, the Activity [11] was “Non-toxic” and the Activity [12] was “inactive”. For the same molecule, the Activity [13] was “inactive”, the Activity [14] was “Non-toxic” and the Activity [15] was “Non-toxic”. For the same molecule, the Activity [16] was “inactive”, the Activity [17] was “inactive” and the Activity [18] was “Non-toxic”. The Activity [19] was “inactive”.
